Assay results reported in patent publication US9771341B2, “Piperazine carbamates and methods of making and using same” (Abide Therapeutics, Inc., priority 2015, dated 2017).

Assays:
MAGL [1] = biological target: T1, MAGL (Mus musculus, UniProt O35678); assay: In vitro competitive activity-based protein profiling (mouse), MAGL; format: biochemical; conditions: for IC50: mouse brain membrane fraction or cell lysates, 30 min preincubation at 37° C, FP-Rh probe; for inhibition at 1 µM: mouse proteome, in vitro, read-out: % Inhibition at 1 μM MAGL
T1 construct: Proteomes (mouse brain membrane fraction or cell lysates); from tissue; host or cells: mouse brain membrane fraction (or unspecified cell lysates)
T1 sequence (O35678 1-303): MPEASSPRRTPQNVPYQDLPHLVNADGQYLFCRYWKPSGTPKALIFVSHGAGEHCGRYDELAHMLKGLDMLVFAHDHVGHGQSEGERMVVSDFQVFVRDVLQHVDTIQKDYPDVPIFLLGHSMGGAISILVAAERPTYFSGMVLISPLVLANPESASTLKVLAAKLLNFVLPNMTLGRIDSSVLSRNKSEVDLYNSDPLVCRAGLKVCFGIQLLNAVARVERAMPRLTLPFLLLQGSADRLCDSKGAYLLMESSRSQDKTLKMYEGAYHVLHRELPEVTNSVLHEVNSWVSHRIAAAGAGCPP
Protocol: (§1) In Vitro Competitive Activity-Based Protein Profiling (Mouse).
(§2) Proteomes (mouse brain membrane fraction or cell lysates) (50 μL, 1.0 mg/mL total protein concentration) were preincubated with varying concentrations of inhibitors at 37° C. After 30 min, FP-Rh (1.0 μL, 50 μM in DMSO) was added and the mixture was incubated for another 30 min at 37° C. Reactions were quenched with SDS loading buffer (50 μL-4×) and run on SDS-PAGE.

FAAH [2] = biological target: T2, FAAH (Mus musculus, UniProt O08914); assay: In vitro competitive activity-based protein profiling (mouse), FAAH; format: biochemical; conditions: for IC50: mouse brain membrane fraction or cell lysates, 30 min preincubation at 37° C, FP-Rh probe; for inhibition at 1 µM: mouse proteome, in vitro
T2 construct: Proteomes (mouse brain membrane fraction or cell lysates); from tissue; host or cells: mouse brain membrane fraction (or unspecified cell lysates)
T2 sequence (O08914 1-579): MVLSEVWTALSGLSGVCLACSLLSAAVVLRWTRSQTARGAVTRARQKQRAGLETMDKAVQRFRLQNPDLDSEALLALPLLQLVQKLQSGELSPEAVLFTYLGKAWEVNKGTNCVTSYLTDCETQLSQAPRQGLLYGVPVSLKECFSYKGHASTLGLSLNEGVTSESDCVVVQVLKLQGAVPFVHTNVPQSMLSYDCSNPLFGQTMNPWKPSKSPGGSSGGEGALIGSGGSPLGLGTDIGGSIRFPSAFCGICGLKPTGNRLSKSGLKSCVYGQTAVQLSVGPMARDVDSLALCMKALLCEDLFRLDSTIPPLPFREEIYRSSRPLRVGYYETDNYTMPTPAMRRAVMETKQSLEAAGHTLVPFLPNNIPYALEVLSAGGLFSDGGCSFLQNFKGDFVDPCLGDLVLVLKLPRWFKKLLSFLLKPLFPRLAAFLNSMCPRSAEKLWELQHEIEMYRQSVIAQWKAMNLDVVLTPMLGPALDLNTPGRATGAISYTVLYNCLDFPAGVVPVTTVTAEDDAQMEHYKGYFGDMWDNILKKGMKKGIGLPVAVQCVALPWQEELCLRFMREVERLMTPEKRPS
Procedure, shortened: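 Mouse brain membrane fraction or cell lysates (1.0 mg/mL protein) preincubated with inhibitors 30 min at 37° C, then FP-Rh probe 30 min at 37° C. SDS-PAGE fluorescence band intensity gave FAAH activity.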

ABHD6 [3] = biological target: T3, ABHD6 (Mus musculus, UniProt Q8R2Y0); assay: In vitro competitive activity-based protein profiling (mouse), ABHD6; format: biochemical; conditions: for IC50: mouse brain membrane fraction or cell lysates, 30 min preincubation at 37° C, FP-Rh probe; for inhibition at 1 µM: mouse proteome, in vitro, read-out: % Inhibition at 1 μM ABHD6
T3 construct: Proteomes (mouse brain membrane fraction or cell lysates); from tissue; host or cells: mouse brain membrane fraction (or unspecified cell lysates)
T3 sequence (Q8R2Y0 1-336): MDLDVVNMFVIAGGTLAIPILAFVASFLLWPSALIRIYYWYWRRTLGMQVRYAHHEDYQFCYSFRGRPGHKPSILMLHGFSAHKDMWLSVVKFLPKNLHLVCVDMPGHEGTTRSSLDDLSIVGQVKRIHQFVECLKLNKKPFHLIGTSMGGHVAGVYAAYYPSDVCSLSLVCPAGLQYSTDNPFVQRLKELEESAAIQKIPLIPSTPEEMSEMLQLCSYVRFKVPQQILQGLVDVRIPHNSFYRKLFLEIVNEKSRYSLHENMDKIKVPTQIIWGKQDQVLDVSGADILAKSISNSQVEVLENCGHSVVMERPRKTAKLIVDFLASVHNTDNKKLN
Protocol: as §1, §2

MAGL [4] = biological target: T1, MAGL; assay: Mouse brain proteomes from inhibitor treated mice, MAGL; format: in vivo; conditions: 5 mg/kg oral gavage, C57Bl/6J mice, brain proteome 4 h after administration
Protocol: (§3) Preparation of Mouse Brain Proteomes from Inhibitor Treated Mice.
(§4) Inhibitors were administered to wild-type C57Bl/6J by oral gavage in a vehicle of polyethylene glycol.

FAAH [5] = biological target: T2, FAAH; assay: Mouse brain proteomes from inhibitor treated mice, FAAH; format: in vivo; conditions: 5 mg/kg oral gavage, C57Bl/6J mice, brain proteome 4 h after administration
Protocol: as §3
Inhibitors were administered to wild-type C57Bl/6J by oral gavage in a vehicle of polyethylene glycol. Each animal was sacrificed 4 h following administration and brain proteomes were prepared and analyzed according to previously established methods (See Niphakis, M. J., et al. (2011) ACS Chem. Neurosci. and Long, J. Z., et al. Nat. Chem. Biol. 5:37-44)

ABHD6 [6] = biological target: T3, ABHD6; assay: Mouse brain proteomes from inhibitor treated mice, ABHD6; format: in vivo; conditions: 5 mg/kg oral gavage, C57Bl/6J mice, brain proteome 4 h after administration
Protocol: as §3, §4

Structure (SMILES)	IC50 (MAGL [1]) [nM]	IC50 (FAAH [2]) [nM]	IC50 (ABHD6 [3]) [nM]	inhibition at 5 mg/kg (MAGL [4]) [%]	inhibition at 5 mg/kg (FAAH [5]) [%]	inhibition at 5 mg/kg (ABHD6 [6]) [%]	inhibition at 1 µM (MAGL [1]) [%]	inhibition at 1 µM (FAAH [2]) [%]	inhibition at 1 µM (ABHD6 [3]) [%]
C#CCO[C@H]1CCN(c2cc(Cl)ccc2CN2CCN(C(=O)OC(C(F)(F)F)C(F)(F)F)CC2)C1 [Example 3, 1,1,1,3,3,3-hexafluoropropan-2-yl (S)-4-(4-chloro-2-(3-(prop-2-yn-1-yloxy)pyrrolidin-1-yl)benzyl)piperazine-1-carboxylate]	< 100	> 1000	> 1000	> 75	< 25	< 25			
O=C(OC(C(F)(F)F)C(F)(F)F)N1CCN(Cc2ccc(Cl)cc2N2CC[C@H](CF)C2)CC1 [Example 4, 1,1,1,3,3,3-hexafluoropropan-2-yl (S)-4-(4-chloro-2-(3-(fluoromethyl)pyrrolidin-1-yl)benzyl)piperazine-1-carboxylate]	< 100	> 1000	> 1000	> 75	< 25	< 25	> 75	< 25	< 25
COc1c(CN2CCN(C(=O)OC(C(F)(F)F)C(F)(F)F)CC2)cccc1CN1CCC(F)(F)CC1 [Example 16, 1,1,1,3,3,3-hexafluoropropan-2-yl 4-(3-((4,4-difluoropiperidin-1-yl)methyl)-2-methoxybenzyl)piperazine-1-carboxylate]	< 100	> 1000	100 to 1000	> 75	< 25	25 to 75	> 75	< 25	> 75
O=C(OC(C(F)(F)F)C(F)(F)F)N1CCN(Cc2ccc(CN3CCOCC3)cc2OC(F)(F)F)CC1 [Example 23, 1,1,1,3,3,3-hexafluoropropan-2-yl 4-(4-(morpholinomethyl)-2-(trifluoromethoxy)benzyl)piperazine-1-carboxylate]	< 100	> 1000	> 1000	> 75	< 25	< 25	> 75	< 25	< 25
O=C(OC(C(F)(F)F)C(F)(F)F)N1CCN(Cc2ccc(C(F)(F)F)c(N3CC4CCC(C3)O4)c2)CC1 [Example 26, 1,1,1,3,3,3-hexafluoropropan-2-yl 4-(3-(8-oxa-3-azabicyclo[3.2.1]octan-3-yl)-4-(trifluoromethyl)benzyl)piperazine-1-carboxylate]	< 100	> 1000	100 to 1000	> 75	< 25	> 75	> 75	< 25	> 75
O=C(OC(C(F)(F)F)C(F)(F)F)N1CCN(Cc2cccc(OC(F)(F)F)c2N2CC3CCC(C2)O3)CC1 [Example 31, 1,1,1,3,3,3-hexafluoropropan-2-yl 4-(2-(8-oxa-3-azabicyclo[3.2.1]octan-3-yl)-3-(trifluoromethoxy)benzyl)piperazine-1-carboxylate]	< 100	> 1000	> 1000	25 to 75	< 25	< 25	> 75	< 25	< 25
O=C(OC(C(F)(F)F)C(F)(F)F)N1CCN(Cc2cccc(OC(F)(F)F)c2N2CCC(N3CCCC3)CC2)CC1 [Example 32, 1,1,1,3,3,3-hexafluoropropan-2-yl 4-(2-(4-(pyrrolidin-1-yl)piperidin-1-yl)-3-(trifluoromethoxy)benzyl)piperazine-1-carboxylate]	< 100	> 1000	> 1000	< 25	< 25	< 25	> 75	< 25	< 25
NC(=O)C1CCN(c2cc(Cl)ccc2CN2CCN(C(=O)OC(C(F)(F)F)C(F)(F)F)CC2)CC1 [Example 33, 1,1,1,3,3,3-hexafluoropropan-2-yl 4-(2-(4-carbamoylpiperidin-1-yl)-4-chlorobenzyl)piperazine-1-carboxylate]	< 100	> 1000	100 to 1000	> 75	< 25	> 75	> 75	< 25	> 75

More lines, now with the values ahead:

IC50 (MAGL [1]) [nM]	IC50 (FAAH [2]) [nM]	IC50 (ABHD6 [3]) [nM]	inhibition at 5 mg/kg (MAGL [4]) [%]	inhibition at 5 mg/kg (FAAH [5]) [%]	inhibition at 5 mg/kg (ABHD6 [6]) [%]	inhibition at 1 µM (MAGL [1]) [%]	inhibition at 1 µM (FAAH [2]) [%]	inhibition at 1 µM (ABHD6 [3]) [%]	Structure (SMILES)
< 100	> 1000	> 1000	> 75	< 25	< 25	> 75	< 25	< 25	CN(C)C(=O)C1CCN(c2cc(C(F)(F)F)ccc2CN2CCN(C(=O)OC(C(F)(F)F)C(F)(F)F)CC2)CC1 [Example 35, 1,1,1,3,3,3-hexafluoropropan-2-yl 4-(2-(4-(dimethylcarbamoyl)piperidin-1-yl)-4-(trifluoromethyl)benzyl)piperazine-1-carboxylate]
< 100	> 1000	> 1000	> 75	< 25	25 to 75	> 75	< 25	25 to 75	CS(=O)(=O)N[C@@H]1CCN(c2cc(Cl)ccc2CN2CCN(C(=O)OC(C(F)(F)F)C(F)(F)F)CC2)C1 [Example 39, 1,1,1,3,3,3-hexafluoropropan-2-yl (R)-4-(4-chloro-2-(3-(methylsulfonamido)pyrrolidin-1-yl)benzyl)piperazine-1-carboxylate]
< 100	> 1000	> 1000	> 75	< 25	< 25	> 75	< 25	< 25	CS(=O)(=O)N[C@H]1CCN(c2cc(Cl)ccc2CN2CCN(C(=O)OC(C(F)(F)F)C(F)(F)F)CC2)C1 [Example 40, 1,1,1,3,3,3-hexafluoropropan-2-yl (S)-4-(4-chloro-2-(3-(methylsulfonamido)pyrrolidin-1-yl)benzyl)piperazine-1-carboxylate]
< 100	> 1000	> 1000	> 75	< 25	< 25	> 75	< 25	25 to 75	O=C(OC(C(F)(F)F)C(F)(F)F)N1CCN(Cc2ccc(Cl)cc2N2CC[C@@H](N3CCCC3=O)C2)CC1 [Example 41, 1,1,1,3,3,3-hexafluoropropan-2-yl (R)-4-(4-chloro-2-(2-oxo-[1,3′-bipyrrolidin]-1′-yl)benzyl)piperazine-1-carboxylate]
